Measurements from patent publication US10392389B2, “Heterocyclic compounds for the inhibition of PASK” (BioEnergenix, LLC, priority 2012, dated 2019).

target: T1, PASK (Invitrogen) (Homo sapiens, UniProt Q96RG2); assay: PAS Kinase FRET Assay; type: biochemical; conditions: PAS kinase TR-FRET assay (665 nm/615 nm); read-out: IC50 Kinase Domain
T1 construct: IC50 Kinase Domain; purchased Invitrogen
From the text: Biochemical Assay for hPASK Activity
The aim of the FRET assay is to determine the inhibition potential of test compounds on targeted kinase. This assay platform provides a homogenous screening method for measuring kinase activity by quantitating the amount of phospho-substrate in solution following a kinase reaction.
In the presence of kinase and ATP, the Ulight-peptide is phosphorylated and captured by an anti-phospho-substrate antibody, which brings the Eu chelate donor and Ulight acceptor dyes into close proximity. Upon excitation at 340 nm, the Eu chelate transfers its energy to the Ulight dye, resulting in a fluorescent light emission at 665 nm.
Titration of kinase at 1 mM ATP was achieved via the following protocol. After making serial three-fold dilutions of PASK (Invitrogen) in reaction buffer across the plate; 5 μl of kinase dilution and 5 μl substrate/ATP mix were added to the wells of the white Optiplate-384 (PerkinElmer). The contents of the plate were and incubated at RT for 1 h. The reaction was stopped by adding 5 μl of stop solution to each test well followed by mixing and incubation at RT for 10 minutes. 5 μl of detection mix (detection antibody diluted in detection buffer) was added; the contents of the plate were mixed and then incubated in the dark for 1 hour at RT. The signal was recorded at TR-FRET mode (665 nm/615 nm). The results were graphed to calculate the EC50.
Titration of ATP at the EC50 concentration of kinase to determine ATP Km,app. was performed using the following method. After making serial dilutions of ATP (Invitrogen), 5 μl of ATP dilution and 5 μl substrate/kinase mix were added to the wells of the white Optiplate-384 (PerkinElmer). The contents of the plate were and incubated at RT for 1 h. The reaction was stopped by adding 5 μl of stop solution to each test well followed by mixing and incubation at RT for 10 minutes. 5 μl of detection mix (detection antibody diluted in detection buffer) was added; the contents of the plate were mixed and then incubated in the dark for 1 hour at RT. The signal was recorded at TR-FRET mode (665 nm/615 nm). The results were graphed to calculate the EC50 as the ATP Km,app.
Compound screening was done via the following method. 10 mM stock solution of test compound in DMSO was prepared by dissolving test compound in DMSO at RT for 1 hour, and then sonicating at 100% output for 8 minutes. If compound is not soluble under this condition, it was diluted to 3 mM. Kinase reaction buffer was prepared containing 10 mM MgCl2, 50 mM HEPES, 1 mM EGTA, 0.01% TWEEN-20, 2 mM DTT. Serial dilutions of the test compounds were prepared at 4× final assay concentrations using Freedom EVO200® dispensing system as follows: 12×10^−5 M, 4×10^−5 M, 1.33×10^−5 M, 4.44×10^−6 M, 1.48×10^−6 M, 4.92×10^−7 M, 1.65×10^−7 M, […], 1.82×10^−8M, 6.09×10^−9, 2.03×10^−9 M. Test compounds (2.5 μl at 4× the final assay concentration) was added to wells using Freedom EVO200® dispensing system. As a positive control, 2.5 μl of positive compound was added to assay wells, and 2.5 μl of DMSO to assay wells as vehicle control. Kinase solution was prepared in reaction buffer at 2× final assay concentration. Kinase solution (5 μl) was added to each well of the assay plate. The substrate and ATP solution was prepared in kinase reaction buffer at 4× final assay concentration. The kinase reaction was started by adding 2.5 μl of substrate+ATP mix solution to each well of the assay plate. The plate is mixed on a plate shaker; then covered and allowed to react for 2 hours in the dark at 25° C. without shaking. The reaction was stopped by adding 5 μl of stop solution to each test well followed by mixing and incubation at RT for 10 minutes in the dark. 5 μl of detection mix (detection antibody diluted in detection buffer) was added; the contents of the plate were mixed and then incubated in the dark for 1 hour at RT. The signal was recorded at TR-FRET mode (665 nm/615 nm).

T1 sequence (Q96RG2 999-1251 limits assumed): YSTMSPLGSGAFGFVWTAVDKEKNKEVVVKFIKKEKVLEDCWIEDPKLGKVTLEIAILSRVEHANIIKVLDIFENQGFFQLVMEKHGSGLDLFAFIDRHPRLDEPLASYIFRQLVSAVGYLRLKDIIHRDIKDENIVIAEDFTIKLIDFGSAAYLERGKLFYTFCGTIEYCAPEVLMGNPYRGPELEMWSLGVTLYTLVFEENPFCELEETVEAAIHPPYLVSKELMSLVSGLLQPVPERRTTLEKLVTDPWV

Row | Compound | IC50 [µM]
1 | Cc1noc2cc(-c3cc(=O)n4ncc(-c5ncco5)c4[nH]3)ccc12 [Example 118, 5-(3-methylbenzo[d]isoxazol-6-yl)-3-(oxazol-2-yl)pyrazolo[1,5-a]pyrimidin-7(4H)-one] | ≤ 10
2 | CCn1ncc2cc(-c3cc(=O)n4ncc(-c5nnc(C)o5)c4[nH]3)ccc21 [Example 31, 5-(1-ethyl-1H-indazol-5-yl)-3-(5-methyl-1,3,4-oxadiazol-2-yl)-4H,7H-pyrazolo[1,5-a]pyrimidin-7-one] | ≤ 10
3 | COc1cc(-c2cc(=O)n3ncc(-c4ncc(-c5ccccc5)o4)c3[nH]2)ccc1Cl [Example 63, 5-(4-chloro-3-methoxyphenyl)-3-(5-phenyloxazol-2-yl)-4H,7H-pyrazolo[1,5-a]pyrimidin-7-one] | ≤ 10
4 | O=c1cc(-c2ccc3occc3c2)[nH]c2c(-c3nccs3)cnn12 [Example 44, 5-(benzofuran-5-yl)-3-(thiazol-2-yl)pyrazolo[1,5-a]pyrimidin-7(4H)-one] | ≤ 10
5 | CCc1noc2cc(-c3cc(=O)n4ncc(-c5ncco5)c4[nH]3)ccc12 [Example 120, 5-(3-Ethylbenzo[d]isoxazol-6-yl)-3-(oxazol-2-yl)pyrazolo[1,5-a]pyrimidin-7(4H)-one] | ≤ 10
6 | CCn1ncc2ccc(-c3cc(=O)n4ncc(-c5ncco5)c4[nH]3)cc21 [Example 109, 5-(1-ethyl-1H-indazol-6-yl)-3-(oxazol-2-yl)pyrazolo[1,5-a]pyrimidin-7(4H)-one] | ≤ 10
7 | CCn1ncc2cc(-c3cc(=O)n4nc(C)c(-c5nc(C)co5)c4[nH]3)ccc21 [Example 42, 5-(1-ethyl-1H-indazol-5-yl)-2-methyl-3-(4-methyloxazol-2-yl)-4H,7H-pyrazolo[1,5-a]pyrimidin-7-one] | ≤ 10
8 | CCn1ncc2cc(-c3cc(=O)n4ncc(-c5ccnn5C)c4[nH]3)ccc21 [Example 53, 5-(1-ethyl-1H-indazol-5-yl)-3-(1-methyl-1H-pyrazol-5-yl)pyrazolo[1,5-a]pyrimidin-7(4H)-one] | ≤ 10
9 | CCn1ncc2cc(-c3cc(=O)n4ncc(-c5ccn(C)n5)c4[nH]3)ccc21 [Example 32, 5-(1-ethyl-1H-indazol-5-yl)-3-(1-methyl-1H-pyrazol-3-yl)-4H,7H-pyrazolo[1,5-a]pyrimidin-7-one] | ≤ 10
10 | Cc1noc(-c2cnn3c(=O)cc(-c4ccc5c(c4)OCCO5)[nH]c23)n1 [Example 97, 5-(2,3-dihydrobenzo[b][1,4]dioxin-6-yl)-3-(3-methyl-1,2,4-oxadiazol-5-yl)pyrazolo[1,5-a]pyrimidin-7(4H)-one] | ≤ 10
11 | Cc1noc(-c2c(O)nn3c(=O)cc(-c4ccc(Cl)cc4)[nH]c23)n1 [Example 9, 5-(4-chlorophenyl)-2-hydroxy-3-(3-methyl-1,2,4-oxadiazol-5-yl)-4H,7H-pyrazolo[1,5-a]pyrimidin-7-one] | ≤ 10
12 | CC(C)n1ncc2cc(-c3cc(=O)n4ncc(-c5ccnn5C)c4[nH]3)ccc21 [Example 88, 5-(1-isopropyl-1H-indazol-5-yl)-3-(1-methyl-1H-pyrazol-5-yl)pyrazolo[1,5-a]pyrimidin-7(4H)-one] | ≤ 10
13 | Cc1cnc(-c2cnn3c(=O)cc(-c4ccc5c(C)noc5c4)[nH]c23)o1 [Example 119, 5-(3-Methylbenzo[d]isoxazol-6-yl)-3-(5-methyloxazol-2-yl)pyrazolo[1,5-a]pyrimidin-7(4H)-one] | ≤ 10
14 | CCc1cnc(-c2cnn3c(=O)cc(-c4ccc5[nH]nnc5c4)[nH]c23)o1 [Example 6, 5-(1H-1,2,3-benzotriazol-5-yl)-3-(5-ethyl-1,3-oxazol-2-yl)-4H,7H-pyrazolo[1,5-a]pyrimidin-7-one] | ≤ 10

The next lines start with the values.

Row | IC50 [µM] | Compound
15 | ≤ 10 | Cc1coc(-c2cnn3c(=O)cc(-c4ccc5onc(C)c5c4)[nH]c23)n1 [Example 90, 5-(3-methylbenzo[d]isoxazol-5-yl)-3-(4-methyloxazol-2-yl)pyrazolo[1,5-a]pyrimidin-7(4H)-one]
16 | ≤ 10 | CCn1nc(C)c2cc(-c3cc(=O)n4ncc(-c5ncc(C)o5)c4[nH]3)ccc21 [Example 105, 5-(1-Ethyl-3-methyl-1H-indazol-5-yl)-3-(5-methyloxazol-2-yl)pyrazolo[1,5-a]pyrimidin-7(4H)-one]
17 | ≤ 10 | CCn1ncc2cc(-c3cc(=O)n4ncc(-c5nccs5)c4[nH]3)ccc21 [Example 26, 5-(1-ethyl-1H-indazol-5-yl)-3-(thiazol-2-yl)-4H,7H-pyrazolo[1,5-a]pyrimidin-7-one]
18 | ≤ 10 | CCn1ncc2cc(-c3cc(=O)n4ncc(-c5nc6ccccc6o5)c4[nH]3)ccc21 [Example 33, 3-(benzo[d]oxazol-2-yl)-5-(1-ethyl-1H-indazol-5-yl)pyrazolo[1,5-a]pyrimidin-7(4H)-one]
19 | ≤ 10 | CCn1ncc2ccc(-c3cc(=O)n4ncc(-c5nc(C)no5)c4[nH]3)cc21 [Example 111, 5-(1-Ethyl-1H-indazol-6-yl)-3-(3-methyl-1,2,4-oxadiazol-5-yl)pyrazolo[1,5-a]pyrimidin-7(4H)-one]
20 | ≤ 10 | CCn1ncc2ccc(-c3cc(=O)n4ncc(-c5ncc(C)o5)c4[nH]3)cc21 [Example 112, 5-(1-ethyl-1H-indazol-6-yl)-3-(5-methyloxazol-2-yl)pyrazolo[1,5-a]pyrimidin-7(4H)-one]
21 | ≤ 10 | Cc1noc2ccc(-c3cc(=O)n4ncc(-c5ncco5)c4[nH]3)cc12 [Example 110, 5-(3-methylbenzo[d]isoxazol-5-yl)-3-(oxazol-2-yl)pyrazolo[1,5-a]pyrimidin-7(4H)-one]
22 | ≤ 10 | CCn1ncc2cc(-c3cc(=O)n4nc(C)c(-c5nc(C)no5)c4[nH]3)ccc21 [Example 115, 5-(1-ethyl-1H-indazol-5-yl)-2-methyl-3-(3-methyl-1,2,4-oxadiazol-5-yl)-4H,7H-pyrazolo[1,5-a]pyrimidin-7-one]
23 | ≤ 10 | Cc1cnc(-c2cnn3c(=O)cc(-c4ccc(Cl)c(OC(F)(F)F)c4)[nH]c23)o1 [Example 38, 5-[4-chloro-3-(trifluoromethoxy)phenyl]-3-(5-methyloxazol-2-yl)-4H,7H-pyrazolo[1,5-a]pyrimidin-7-one]
24 | ≤ 10 | CCOc1cc(-c2cc(=O)n3ncc(-c4ncc(C)o4)c3[nH]2)ccc1Cl [Example 46, 5-(4-chloro-3-ethoxyphenyl)-3-(5-methyloxazol-2-yl)pyrazolo[1,5-a]pyrimidin-7(4H)-one]
25 | ≤ 10 | CCn1ncc2cc(-c3cc(=O)n4ncc(-c5nc6ccccc6s5)c4[nH]3)ccc21 [Example 40, 3-(benzo[d]thiazol-2-yl)-5-(1-ethyl-1H-indazol-5-yl)pyrazolo[1,5-a]pyrimidin-7(4H)-one]
26 | ≤ 10 | CCc1nn2c(=O)cc(-c3ccc(Cl)c(OC)c3)[nH]c2c1-c1nc(C)no1 [Example 117, 5-(4-chloro-3-methoxyphenyl)-2-ethyl-3-(3-methyl-1,2,4-oxadiazol-5-yl)-4H,7H-pyrazolo[1,5-a]pyrimidin-7-one]
27 | ≤ 10 | COc1cc(-c2cc(=O)n3ncc(-c4nc5ccccc5s4)c3[nH]2)ccc1Cl [Example 41, 3-(benzo[d]thiazol-2-yl)-5-(4-chloro-3-methoxyphenyl)pyrazolo[1,5-a]pyrimidin-7(4H)-one]
28 | ≤ 10 | CCOc1cc(-c2cc(=O)n3ncc(-c4ncc(CC)o4)c3[nH]2)ccc1Cl [Example 35, 5-(4-chloro-3-ethoxyphenyl)-3-(5-ethyloxazol-2-yl)-4H,7H-pyrazolo[1,5-a]pyrimidin-7-one]
